According to US20100311107A1, “Ultra-High Throughput Screening of Natural Products” (priority 2004, published 2010):
Where two headings read alike, the source gives them in different places.

Assays:
Format in all cases: cell-based, Escherichia coli
[1] = tested on: E. coli screening strain DR1212; design: unit not given here
Description: (§1) The level of drug-resistance of screening strain DR1212 was analyzed by standard MIC assay in MHB liquid medium and the result was summarized in Table 11. Similar to screening strains, DR1234 and CM166, DR1212 is also resistant to drugs whose resistant genes have been introduced.

[2] = tested on: E. coli screening strain CM242; design: unit not given here; settings: second Table 12, MHB medium
Description: (§2) The level of drug resistance of these screening strains (both intermediates and finals) was evaluated by standard MIC assay in MHB liquid medium and the result of Strain CM242 is summarized in Table 12.

[3] = tested on: E. coli screening strain CM400; design: unit not given here; settings: Table 13, MHB medium
Description: (§3) The level of drug resistance of screening strains CM400 and CM435 was evaluated by standard MIC assay in MHB liquid medium and the results are summarized in Table 13. According to the MIC results, CM435 is hypersensitive to Bleomycin, Daunorucibin, Coumermycin A1 and Erythromycin. Screening strain CM435 and others, which are hypersensitive to certain types of antimicrobial agents, are advantageous in detecting bioactive compounds with low concentration in the screening system.

[4] = tested on: E. coli screening strain CM166; design: unit not given here; settings: Table 9, MHB medium
Source text: (§4) The level of drug resistance of CM166 was estimated by MIC assay carried out in MHB liquid medium and the results were summarized in Table 9. CM166 is resistant to antibacterial agents whose resistant genes have been incorporated into the strain, but not to other antibacterial drugs whose resistant genes are not incorporated.

[5] = tested on: E. coli screening strain DR1234; design: unit not given here
Description: (§5) The screening strain, DR1234, was established after all desired drug-resistant genes listed in Table 5 had been delivered into the parent E. coli strain, MG1655, by methods described above. Its level of drug resistance was analyzed by the standard minimum inhibitory concentration (MIC) assay in MHB liquid medium (Chantot, et al., 1986, “Antibacterial activity of roxithromycin: a laboratory evaluation,” J. Antibiot, 39(5):660-8) and the result was summarized in Table 7.

E. coli MG1655 = tested on: E. coli MG1655; design: unit not given here
Description: as §5, §4, §1, §2, §3

[6] = tested on: E. coli screening strain CM435; design: Minimal inhibitory concentrations (MIC90) CM435: unit not given here; settings: for Minimal inhibitory concentrations (MIC90) CM435: Table 13, MHB medium; for sensitivity of CM435 according to the MIC results: MHB liquid medium

Gentamicin
Minimal inhibitory concentrations (MIC90) DR1212 ([1]; Table 11, MHB medium): 200
Minimal inhibitory concentrations (MIC90) CM242 [2]: 100
Minimal inhibitory concentrations (MIC90) CM400 [3]: >64
Minimal inhibitory concentrations (MIC90) CM166 [4]: >400
Minimal inhibitory concentrations (MIC90) DR1234 ([5]; Table 7, MHB medium): 400
Minimal inhibitory concentrations (MIC90) MG1655 (E. coli MG1655; Table 7, MHB medium): 0.8
Minimal inhibitory concentrations (MIC90) MG1655 (E. coli MG1655; Table 9, MHB medium): 0.8
Minimal inhibitory concentrations (MIC90) MG1655 (E. coli MG1655; Table 11, MHB medium): 0.8
Minimal inhibitory concentrations (MIC90) MG1655 (E. coli MG1655; Table 13, MHB medium): 1
Minimal inhibitory concentrations (MIC90) MG1655 (E. coli MG1655; second Table 12, MHB medium): 0.8
Minimal inhibitory concentrations (MIC90) CM435 [6]: >64

NC[C@@H]1CC[C@@H](N)[C@@H](O[C@H]2[C@H](O)[C@@H](O[C@H]3O[C@H](CO)[C@@H](O)[C@H](N)[C@H]3O)[C@H](N)C[C@@H]2N)O1 [Dibekacin]
Minimal inhibitory concentrations (MIC90) CM242 [2]: 400
Minimal inhibitory concentrations (MIC90) MG1655 (E. coli MG1655; second Table 12, MHB medium): 3.2

O=C(N[C@H](CO)[C@H](O)c1ccc([N+](=O)[O-])cc1)C(Cl)Cl [Chloramphenicol]
Minimal inhibitory concentrations (MIC90) DR1212 ([1]; Table 11, MHB medium): 400
Minimal inhibitory concentrations (MIC90) CM242 [2]: 100
Minimal inhibitory concentrations (MIC90) CM400 [3]: >64
Minimal inhibitory concentrations (MIC90) CM166 [4]: 100
Minimal inhibitory concentrations (MIC90) DR1234 ([5]; Table 7, MHB medium): 100
Minimal inhibitory concentrations (MIC90) MG1655 (E. coli MG1655; Table 7, MHB medium): 3.2
Minimal inhibitory concentrations (MIC90) MG1655 (E. coli MG1655; Table 9, MHB medium): 3.2
Minimal inhibitory concentrations (MIC90) MG1655 (E. coli MG1655; Table 11, MHB medium): 3.2
Minimal inhibitory concentrations (MIC90) MG1655 (E. coli MG1655; Table 13, MHB medium): 8
Minimal inhibitory concentrations (MIC90) MG1655 (E. coli MG1655; second Table 12, MHB medium): 3.2
Minimal inhibitory concentrations (MIC90) CM435 [6]: >64

CO[C@H]1[C@H](OC(=O)c2ccc(C)[nH]2)[C@H](O)[C@@H](Oc2ccc3c(O)c(NC(=O)c4c[nH]c(C(=O)Nc5c(O)c6ccc(O[C@H]7OC(C)(C)[C@@H](OC)[C@H](OC(=O)c8ccc(C)[nH]8)[C@@H]7O)c(C)c6oc5=O)c4C)c(=O)oc3c2C)OC1(C)C [Coumermycin A1]
Minimal inhibitory concentrations (MIC90) DR1212 ([1]; Table 11, MHB medium): 3.2
Minimal inhibitory concentrations (MIC90) CM242 [2]: 6.3
Minimal inhibitory concentrations (MIC90) CM400 [3]: 64
Minimal inhibitory concentrations (MIC90) CM166 [4]: 6.3
Minimal inhibitory concentrations (MIC90) DR1234 ([5]; Table 7, MHB medium): 3.2
Minimal inhibitory concentrations (MIC90) MG1655 (E. coli MG1655; Table 7, MHB medium): 12.5
Minimal inhibitory concentrations (MIC90) MG1655 (E. coli MG1655; Table 9, MHB medium): 12.5
Minimal inhibitory concentrations (MIC90) MG1655 (E. coli MG1655; Table 11, MHB medium): 12.5
Minimal inhibitory concentrations (MIC90) MG1655 (E. coli MG1655; Table 13, MHB medium): >64
Minimal inhibitory concentrations (MIC90) MG1655 (E. coli MG1655; second Table 12, MHB medium): 12.5
sensitivity of CM435 according to the MIC results [6]: hypersensitive
Minimal inhibitory concentrations (MIC90) CM435 [6]: 4

Bleomycin
Minimal inhibitory concentrations (MIC90) DR1212 ([1]; Table 11, MHB medium): ≦0.4
Minimal inhibitory concentrations (MIC90) CM242 [2]: 200
Minimal inhibitory concentrations (MIC90) CM400 [3]: >64
Minimal inhibitory concentrations (MIC90) CM166 [4]: 400
Minimal inhibitory concentrations (MIC90) DR1234 ([5]; Table 7, MHB medium): 0.8
Minimal inhibitory concentrations (MIC90) MG1655 (E. coli MG1655; Table 7, MHB medium): ≦0.2-0.4
Minimal inhibitory concentrations (MIC90) MG1655 (E. coli MG1655; Table 9, MHB medium): ≦0.2-0.4
Minimal inhibitory concentrations (MIC90) MG1655 (E. coli MG1655; Table 11, MHB medium): ≦0.2-0.4
Minimal inhibitory concentrations (MIC90) MG1655 (E. coli MG1655; Table 13, MHB medium): 2
Minimal inhibitory concentrations (MIC90) MG1655 (E. coli MG1655; second Table 12, MHB medium): ≦0.2-0.4
sensitivity of CM435 according to the MIC results [6]: hypersensitive
Minimal inhibitory concentrations (MIC90) CM435 [6]: 8

CC[C@H]1OC(=O)[C@H](C)[C@@H](O[C@H]2C[C@@](C)(OC)[C@@H](O)[C@H](C)O2)[C@H](C)[C@@H](O[C@@H]2O[C@H](C)C[C@H](N(C)C)[C@H]2O)[C@](C)(O)C[C@@H](C)C(=O)[C@H](C)[C@@H](O)[C@]1(C)O [Erythromycin]
Minimal inhibitory concentrations (MIC90) DR1212 ([1]; Table 11, MHB medium): 50
Minimal inhibitory concentrations (MIC90) CM242 [2]: 25
Minimal inhibitory concentrations (MIC90) CM400 [3]: 64
Minimal inhibitory concentrations (MIC90) CM166 [4]: 100
Minimal inhibitory concentrations (MIC90) DR1234 ([5]; Table 7, MHB medium): 100
Minimal inhibitory concentrations (MIC90) MG1655 (E. coli MG1655; Table 7, MHB medium): 25
Minimal inhibitory concentrations (MIC90) MG1655 (E. coli MG1655; Table 9, MHB medium): 25
Minimal inhibitory concentrations (MIC90) MG1655 (E. coli MG1655; Table 11, MHB medium): 25
Minimal inhibitory concentrations (MIC90) MG1655 (E. coli MG1655; Table 13, MHB medium): >64
Minimal inhibitory concentrations (MIC90) MG1655 (E. coli MG1655; second Table 12, MHB medium): 25
sensitivity of CM435 according to the MIC results [6]: hypersensitive
Minimal inhibitory concentrations (MIC90) CM435 [6]: 4

CN[C@@H]1[C@@H](O[C@H]2O[C@H](CO)[C@@H](N)[C@H](O)[C@H]2O)OC2C[C@@H](N)[C@@H](O[C@H]3[C@H](O)[C@@H](O)[C@H](N)C[C@@H]3N)OC2[C@@H]1O (stereo partly shown) [Apramycin]
Minimal inhibitory concentrations (MIC90) DR1212 ([1]; Table 11, MHB medium): 1.6
Minimal inhibitory concentrations (MIC90) CM242 [2]: 400
Minimal inhibitory concentrations (MIC90) CM400 [3]: 64
Minimal inhibitory concentrations (MIC90) CM166 [4]: 200
Minimal inhibitory concentrations (MIC90) DR1234 ([5]; Table 7, MHB medium): 400
Minimal inhibitory concentrations (MIC90) MG1655 (E. coli MG1655; Table 7, MHB medium): 3.2-6.3
Minimal inhibitory concentrations (MIC90) MG1655 (E. coli MG1655; Table 9, MHB medium): 3.2-6.3
Minimal inhibitory concentrations (MIC90) MG1655 (E. coli MG1655; Table 11, MHB medium): 3.2-6.3
Minimal inhibitory concentrations (MIC90) MG1655 (E. coli MG1655; Table 13, MHB medium): 4
Minimal inhibitory concentrations (MIC90) MG1655 (E. coli MG1655; second Table 12, MHB medium): 3.2-6.3
Minimal inhibitory concentrations (MIC90) CM435 [6]: >64

Actinomycin C
Minimal inhibitory concentrations (MIC90) DR1212 ([1]; Table 11, MHB medium): 25.0
Minimal inhibitory concentrations (MIC90) CM242 [2]: 200
Minimal inhibitory concentrations (MIC90) CM400 [3]: >256
Minimal inhibitory concentrations (MIC90) CM166 [4]: 50
Minimal inhibitory concentrations (MIC90) DR1234 ([5]; Table 7, MHB medium): 100
Minimal inhibitory concentrations (MIC90) MG1655 (E. coli MG1655; Table 7, MHB medium): 50
Minimal inhibitory concentrations (MIC90) MG1655 (E. coli MG1655; Table 9, MHB medium): 50
Minimal inhibitory concentrations (MIC90) MG1655 (E. coli MG1655; Table 11, MHB medium): 50
Minimal inhibitory concentrations (MIC90) MG1655 (E. coli MG1655; Table 13, MHB medium): 256
Minimal inhibitory concentrations (MIC90) MG1655 (E. coli MG1655; second Table 12, MHB medium): 50
Minimal inhibitory concentrations (MIC90) CM435 [6]: >256

NC[C@H]1O[C@H](O[C@H]2[C@H](O)[C@@H](O[C@H]3O[C@H](CO)[C@@H](O)[C@H](N)[C@H]3O)[C@H](N)C[C@@H]2N)[C@H](O)[C@@H](O)[C@@H]1O [Kanamycin]
Minimal inhibitory concentrations (MIC90) DR1212 [1]: 400
Minimal inhibitory concentrations (MIC90) CM242 [2]: >400
Minimal inhibitory concentrations (MIC90) CM400 [3]: >64
Minimal inhibitory concentrations (MIC90) CM166 [4]: >400
Minimal inhibitory concentrations (MIC90) DR1234 [5]: >400
Minimal inhibitory concentrations (MIC90) CM435 [6]: >64

C[C@H]1[C@H](NC(=O)/C(=N\OC(C)(C)C(=O)O)c2csc(N)n2)C(=O)N1S(=O)(=O)O [Aztreonam]
Minimal inhibitory concentrations (MIC90) DR1212 ([1]; Table 11, MHB medium): ≦0.05
Minimal inhibitory concentrations (MIC90) CM242 [2]: 0.3
Minimal inhibitory concentrations (MIC90) CM400 [3]: <0.06
Minimal inhibitory concentrations (MIC90) CM166 [4]: ≦0.05
Minimal inhibitory concentrations (MIC90) DR1234 ([5]; Table 7, MHB medium): ≦0.05
Minimal inhibitory concentrations (MIC90) MG1655 (E. coli MG1655; Table 7, MHB medium): 0.1
Minimal inhibitory concentrations (MIC90) MG1655 (E. coli MG1655; Table 9, MHB medium): 0.1
Minimal inhibitory concentrations (MIC90) MG1655 (E. coli MG1655; Table 11, MHB medium): 0.1
Minimal inhibitory concentrations (MIC90) MG1655 (E. coli MG1655; Table 13, MHB medium): 0.06
Minimal inhibitory concentrations (MIC90) MG1655 (E. coli MG1655; second Table 12, MHB medium): 0.1

NC[C@H]1O[C@H](O[C@H]2[C@H](O)[C@@H](O[C@H]3O[C@H](CO)[C@@H](O)[C@H](N)[C@H]3O)[C@H](N)C[C@@H]2N)[C@H](N)C[C@@H]1O [Tobramycin]
Minimal inhibitory concentrations (MIC90) DR1212 ([1]; Table 11, MHB medium): 25
Minimal inhibitory concentrations (MIC90) CM242 [2]: 100
Minimal inhibitory concentrations (MIC90) CM166 [4]: >400
Minimal inhibitory concentrations (MIC90) DR1234 ([5]; Table 7, MHB medium): 50
Minimal inhibitory concentrations (MIC90) MG1655 (E. coli MG1655; Table 7, MHB medium): 0.4
Minimal inhibitory concentrations (MIC90) MG1655 (E. coli MG1655; Table 9, MHB medium): 0.4
Minimal inhibitory concentrations (MIC90) MG1655 (E. coli MG1655; Table 11, MHB medium): 0.4
Minimal inhibitory concentrations (MIC90) MG1655 (E. coli MG1655; second Table 12, MHB medium): 0.4

CO[C@H]1/C=C/O[C@@]2(C)Oc3c(C)c(O)c4c(O)c(cc(O)c4c3C2=O)NC(=O)/C(C)=C\C=C\[C@H](C)[C@H](O)[C@@H](C)[C@@H](O)[C@@H](C)[C@H](OC(C)=O)[C@@H]1C [Rifamycin]
Minimal inhibitory concentrations (MIC90) CM400 [3]: >64
Minimal inhibitory concentrations (MIC90) MG1655 (E. coli MG1655; Table 13, MHB medium): 16
Minimal inhibitory concentrations (MIC90) CM435 [6]: 16
